Data reported in ChEMBL document CHEMBL5729720, “Pyridine and pyrazine derivatives as preferential cannabinoid 2 agonists” (2023).

Target: Cannabinoid receptor 2 (Homo sapiens, UniProt P34972)
Assay: Radioligand Binding Assay: The affinity of the compounds of the invention for cannabinoid CB1 receptors was determined using recommended amounts of membrane preparations (PerkinElmer) of human embryonic kidney (HEK) cells expressing the human CNR1 or CNR2 receptors in conjunction with 1.5 or 2.6 nM [3H]-CP-55,940 (Perkin Elmer) as radioligand, respectively. Binding was performed in binding buffer (50 mM Tris, 5 mM MgCl2, 2.5 mM EDTA, and 0.5% (wt/vol) fatty acid free BSA, pH 7.4 for CB1 receptor and 50 mM Tris, 5 mM MgCl2, 2.5 mM EGTA, and 0.1% (wt/vol) fatty acid free BSA, pH 7.4 for CB2 receptor) in a total volume of 0.2 ml for 1 h at 30° C. shaking. The reaction was terminated by rapid filtration through microfiltration plates coated with 0.5% polyethylenimine (UniFilter GFB filter plate; Packard). Bound radioactivity was analyzed for Ki using nonlinear regression analysis (Activity Base, ID Business Solution, Limited), with the Kd values for [3H]CP55,940 determined from saturation experiments. The compounds of formula (I) show an excellent affinity for the CB2 receptor.

Chain of Cannabinoid receptor 2 (P34972 whole entry): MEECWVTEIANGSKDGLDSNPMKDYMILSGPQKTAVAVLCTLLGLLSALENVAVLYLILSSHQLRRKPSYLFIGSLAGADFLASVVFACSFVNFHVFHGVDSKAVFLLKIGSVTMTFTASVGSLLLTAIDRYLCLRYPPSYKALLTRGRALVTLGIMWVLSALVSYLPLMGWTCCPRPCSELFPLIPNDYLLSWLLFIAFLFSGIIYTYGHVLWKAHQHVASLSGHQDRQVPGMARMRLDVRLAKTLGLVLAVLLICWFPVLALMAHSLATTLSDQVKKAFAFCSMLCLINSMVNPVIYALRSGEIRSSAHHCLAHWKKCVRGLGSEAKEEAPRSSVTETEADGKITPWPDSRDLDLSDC

Ki	Structure (SMILES)
1.8 nM	CCOC(=O)C(CC)(CC)NC(=O)c1ccc(N2CC(OC)C2)c(OC[C@H]2C[C@@H]2COCF)n1 (mixture of isomers)
3.7 nM	CCOC(=O)C(CC)(CC)NC(=O)c1ccc(N2CC(OC)C2)c(OC[C@H]2C[C@@H]2COCCF)n1 (mixture of isomers)

Structure (SMILES)	Ki
CCC(CC)(NC(=O)c1ccc(N2CC(OC)C2)c(OC[C@H]2C[C@@H]2CO)n1)C(=O)OCCCCF	1.8 nM
